ChEMBL document CHEMBL1275492, “In vitro activity of ceftobiprole against pathogens from two phase 3 clinical trials of complicated skin and skin structure infections” (2008)
Values after ≈ are worked out from the molar mass of the structure shown.

Key:
Type in all cases: functional
Prevotella = test: Antibacterial activity against Prevotella spp. obtained from complicated skin and skin structure infections by agar dilution method
Veillonella = test: Antibacterial activity against Veillonella spp. obtained from complicated skin and skin structure infections by agar dilution method
Bacteroides fragilis = test: Antibacterial activity against Bacteroides fragilis obtained from complicated skin and skin structure infections by agar dilution method
Staphylococcus warneri = test: Antibacterial activity against coagulase-negative Staphylococcus warneri obtained from complicated skin and skin structure infections by agar dilution method
Enterobacter cloacae = test: Antibacterial activity against Enterobacter cloacae obtained from complicated skin and skin structure infections by agar dilution method
Pseudomonas fluorescens = test: Antibacterial activity against Pseudomonas fluorescens obtained from complicated skin and skin structure infections by agar dilution method
Serratia marcescens = test: Antibacterial activity against Serratia marcescens obtained from complicated skin and skin structure infections by agar dilution method
Proteus vulgaris = test: Antibacterial activity against Proteus vulgaris obtained from complicated skin and skin structure infections by agar dilution method
Proteus penneri = test: Antibacterial activity against Proteus penneri obtained from complicated skin and skin structure infections by agar dilution method
[1] = tested on: Streptococcus constellatus; test: Antibacterial activity against Streptococcus constellatus obtained from complicated skin and skin structure infections by agar dilution method
Micrococcus = test: Antibacterial activity against Micrococcus spp. obtained from complicated skin and skin structure infections by agar dilution method
Acinetobacter baumannii = test: Antibacterial activity against Acinetobacter baumannii obtained from complicated skin and skin structure infections by agar dilution method
Salmonella = test: Antibacterial activity against Salmonella spp. obtained from complicated skin and skin structure infections by agar dilution method
Pseudomonas aeruginosa = test: Antibacterial activity against Pseudomonas aeruginosa obtained from complicated skin and skin structure infections by agar dilution method
[2] = tested on: Staphylococcus saprophyticus; test: Antibacterial activity against coagulase-negative Staphylococcus saprophyticus obtained from complicated skin and skin structure infections by agar dilution method
Staphylococcus aureus [3] = test: Antibacterial activity against methicillin resistant Staphylococcus aureus obtained from complicated skin and skin structure infections by agar dilution method
Enterococcus faecium = test: Antibacterial activity against Enterococcus faecium obtained from complicated skin and skin structure infections by agar dilution method
Streptococcus agalactiae = test: Antibacterial activity against Streptococcus agalactiae obtained from complicated skin and skin structure infections by agar dilution method
Aerococcus viridans = test: Antibacterial activity against Aerococcus viridans obtained from complicated skin and skin structure infections by agar dilution method
Mammaliicoccus sciuri = test: Antibacterial activity against coagulase-negative Staphylococcus sciuri obtained from complicated skin and skin structure infections by agar dilution method
Streptococcus pyogenes = test: Antibacterial activity against Streptococcus pyogenes obtained from complicated skin and skin structure infections by agar dilution method
Escherichia coli = test: Antibacterial activity against Escherichia coli obtained from complicated skin and skin structure infections by agar dilution method
Streptococcus mitis = test: Antibacterial activity against Streptococcus mitis obtained from complicated skin and skin structure infections by agar dilution method
[4] = tested on: Staphylococcus lugdunensis; test: Antibacterial activity against methicillin-resistant, oxacillin-susceptible, coagulase-negative, mecA-positive Staphylococcus lugdunensis obtained from complicated skin and skin structure infections by agar dilution method
Staphylococcus cohnii = test: Antibacterial activity against coagulase-negative Staphylococcus cohnii obtained from complicated skin and skin structure infections by agar dilution method
[5] = Antibacterial activity against Streptococcus sp. 'group C' obtained from complicated skin and skin structure infections by agar dilution method
Staphylococcus capitis = test: Antibacterial activity against coagulase-negative Staphylococcus capitis obtained from complicated skin and skin structure infections by agar dilution method
Proteus mirabilis = test: Antibacterial activity against Proteus mirabilis obtained from complicated skin and skin structure infections by agar dilution method
Enterococcus faecalis = test: Antibacterial activity against Enterococcus faecalis obtained from complicated skin and skin structure infections by agar dilution method
Citrobacter braakii = test: Antibacterial activity against Citrobacter braakii obtained from complicated skin and skin structure infections by agar dilution method
Klebsiella aerogenes = test: Antibacterial activity against Enterobacter aerogenes obtained from complicated skin and skin structure infections by agar dilution method
Klebsiella oxytoca = test: Antibacterial activity against Klebsiella oxytoca obtained from complicated skin and skin structure infections by agar dilution method
Morganella morganii = test: Antibacterial activity against Morganella morganii obtained from complicated skin and skin structure infections by agar dilution method
[6] = Antibacterial activity against Streptococcus sp. 'group G' obtained from complicated skin and skin structure infections by agar dilution method
Klebsiella pneumoniae = test: Antibacterial activity against Klebsiella pneumoniae obtained from complicated skin and skin structure infections by agar dilution method
Enterobacter amnigenus = test: Antibacterial activity against Enterobacter amnigenus obtained from complicated skin and skin structure infections by agar dilution method; details: Lelliottia amnigena
Gemella morbillorum = test: Antibacterial activity against Gemella morbillorum obtained from complicated skin and skin structure infections […]
Bacillus = test: Antibacterial activity against Bacillus spp. obtained from complicated skin and skin structure infections by agar dilution method
Gemella = test: Antibacterial activity against Gemella spp. obtained from complicated skin and skin structure infections by agar dilution method
[7] = tested on: Staphylococcus lugdunensis; test: Antibacterial activity against coagulase-negative Staphylococcus lugdunensis obtained from complicated skin and skin structure infections by agar dilution method
Staphylococcus hominis = test: Antibacterial activity against coagulase-negative Staphylococcus hominis obtained from complicated skin and skin structure infections by agar dilution method
[8] = tested on: Stenotrophomonas maltophilia; test: Antibacterial activity against Stenotrophomonas maltophilia obtained from complicated skin and skin structure infections by agar dilution method
Staphylococcus aureus [9] = test: Antibacterial activity against methicillin susceptible Staphylococcus aureus obtained from complicated skin and skin structure infections by agar dilution method
Citrobacter freundii = test: Antibacterial activity against Citrobacter freundii obtained from complicated skin and skin structure infections by agar dilution method
Staphylococcus = test: Antibacterial activity against methicillin-susceptible, coagulase-negative Staphylococcus obtained from complicated skin and skin structure infections by agar dilution method
[10] = tested on: Staphylococcus intermedius; test: Antibacterial activity against Staphylococcus intermedius obtained from complicated skin and skin structure infections by agar dilution method
[11] = tested on: Staphylococcus epidermidis; test: Antibacterial activity against coagulase-negative Staphylococcus epidermidis obtained from complicated skin and skin structure infections by agar dilution method
Staphylococcus aureus [12] = test: Antibacterial activity against Staphylococcus aureus obtained from complicated skin and skin structure infections by agar dilution method
Providencia stuartii = test: Antibacterial activity against Providencia stuartii obtained from complicated skin and skin structure infections by agar dilution method
[13] = tested on: Staphylococcus haemolyticus; test: Antibacterial activity against coagulase-negative Staphylococcus haemolyticus obtained from complicated skin and skin structure infections by agar dilution method
Lactococcus lactis = test: Antibacterial activity against Lactococcus lactis obtained from complicated skin and skin structure infections by agar dilution method

Compound: CO[C@@]1(NC(=O)Cc2cccs2)C(=O)N2C(C(=O)O)=C(COC(N)=O)CS[C@@H]21 [CEFOXITIN]
- MIC (Prevotella): ≤ 1 µg/mL
- MIC (Veillonella): ≤ 1 µg/mL
- MIC (Bacteroides fragilis): ≤ 1 µg/mL

Compound: Cc1ncc([N+](=O)[O-])n1CCO [METRONIDAZOLE]
- MIC (Prevotella): 0.5 µg/mL (≈ 2.92 µM)
- MIC (Veillonella): 0.5 µg/mL (≈ 2.92 µM)
- MIC (Bacteroides fragilis): 0.5 µg/mL (≈ 2.92 µM)

Compound: C[C@H]1COc2c(N3CCN(C)CC3)c(F)cc3c(=O)c(C(=O)O)cn1c23.C[C@H]1COc2c(N3CCN(C)CC3)c(F)cc3c(=O)c(C(=O)O)cn1c23.O [LEVOFLOXACIN]
- MIC50 (Staphylococcus warneri): 0.12 µg/mL
- MIC90 (Staphylococcus warneri): 8 µg/mL
- MIC50 (Enterobacter cloacae): 0.06 µg/mL
- MIC90 (Enterobacter cloacae): 4 µg/mL
- MIC50 (Pseudomonas fluorescens): 4 µg/mL
- MIC90 (Pseudomonas fluorescens): 8 µg/mL
- MIC50 (Serratia marcescens): ≤ 0.06 µg/mL
- MIC90 (Serratia marcescens): 8 µg/mL
- MIC50 (Proteus vulgaris): ≤ 0.06 µg/mL
- MIC90 (Proteus vulgaris): 8 µg/mL
- MIC50 (Proteus penneri): ≤ 0.06 µg/mL
- MIC90 (Proteus penneri): 8 µg/mL
- MIC [1]: 0.25 µg/mL
- MIC50 [1]: 0.25 µg/mL
- MIC90 [1]: 1 µg/mL
- MIC50 (Micrococcus): 0.5 µg/mL
- MIC90 (Micrococcus): 4 µg/mL
- MIC50 (Acinetobacter baumannii): 4 µg/mL
- MIC90 (Acinetobacter baumannii): 8 µg/mL
- MIC50 (Salmonella): ≤ 0.06 µg/mL
- MIC90 (Salmonella): 8 µg/mL
- MIC50 (Pseudomonas aeruginosa): 4 µg/mL
- MIC90 (Pseudomonas aeruginosa): 64 µg/mL
- MIC50 [2]: 0.12 µg/mL
- MIC90 [2]: 8 µg/mL
- MIC50 (Staphylococcus aureus [3]): 4 µg/mL
- MIC90 (Staphylococcus aureus [3]): 8 µg/mL
- MIC50 (Enterococcus faecium): 4 µg/mL
- MIC (Streptococcus agalactiae): 0.5 µg/mL
- MIC50 (Streptococcus agalactiae): 0.5 µg/mL
- MIC90 (Streptococcus agalactiae): 1 µg/mL
- MIC50 (Aerococcus viridans): 0.5 µg/mL
- MIC90 (Aerococcus viridans): 4 µg/mL
- MIC50 (Mammaliicoccus sciuri): 0.12 µg/mL
- MIC90 (Mammaliicoccus sciuri): 8 µg/mL
- MIC50 (Streptococcus pyogenes): 0.5 µg/mL
- MIC90 (Streptococcus pyogenes): 0.5 µg/mL
- MIC50 (Escherichia coli): 0.03 µg/mL
- MIC90 (Escherichia coli): 1 µg/mL
- MIC (Streptococcus mitis): ≤ 0.03 µg/mL
- MIC50 (Streptococcus mitis): ≤ 0.03 µg/mL
- MIC90 (Streptococcus mitis): 0.12 µg/mL
- MIC50 [4]: 0.25 µg/mL
- MIC90 [4]: > 8 µg/mL
- MIC50 (Staphylococcus cohnii): 0.12 µg/mL
- MIC90 (Staphylococcus cohnii): 8 µg/mL
- MIC50 [5]: 0.5 µg/mL
- MIC90 [5]: 0.5 µg/mL
- MIC50 (Staphylococcus capitis): 0.12 µg/mL
- MIC90 (Staphylococcus capitis): 8 µg/mL
- MIC50 (Proteus mirabilis): ≤ 0.06 µg/mL
- MIC90 (Proteus mirabilis): > 8 µg/mL
- MIC50 (Enterococcus faecalis): 1 µg/mL
- MIC90 (Enterococcus faecalis): 2 µg/mL
- MIC50 (Citrobacter braakii): ≤ 0.06 µg/mL
- MIC90 (Citrobacter braakii): 8 µg/mL
- MIC50 (Klebsiella aerogenes): ≤ 0.06 µg/mL
- MIC90 (Klebsiella aerogenes): 8 µg/mL
- MIC50 (Klebsiella oxytoca): ≤ 0.06 µg/mL
- MIC90 (Klebsiella oxytoca): 8 µg/mL
- MIC50 (Morganella morganii): 1 µg/mL
- MIC90 (Morganella morganii): 64 µg/mL
- MIC50 [6]: 0.5 µg/mL
- MIC90 [6]: 0.5 µg/mL
- MIC50 (Klebsiella pneumoniae): 0.06 µg/mL
- MIC90 (Klebsiella pneumoniae): 4 µg/mL
- MIC50 (Enterobacter amnigenus): ≤ 0.06 µg/mL
- MIC90 (Enterobacter amnigenus): 8 µg/mL
- MIC50 (Gemella morbillorum): 0.5 µg/mL
- MIC90 (Gemella morbillorum): 4 µg/mL
- MIC50 (Bacillus): 0.5 µg/mL
- MIC90 (Bacillus): 4 µg/mL
- MIC50 (Gemella): 0.5 µg/mL
- MIC90 (Gemella): 4 µg/mL
- MIC50 [7]: 0.12 µg/mL
- MIC90 [7]: 8 µg/mL
- MIC50 (Staphylococcus hominis): 0.12 µg/mL
- MIC90 (Staphylococcus hominis): 8 µg/mL
- MIC50 [8]: 4 µg/mL
- MIC90 [8]: 8 µg/mL
- MIC50 (Staphylococcus aureus [9]): 0.12 µg/mL
- MIC90 (Staphylococcus aureus [9]): 0.5 µg/mL
- MIC50 (Citrobacter freundii): ≤ 0.06 µg/mL
- MIC90 (Citrobacter freundii): 8 µg/mL
- MIC50 (Staphylococcus): 0.12 µg/mL
- MIC90 (Staphylococcus): 0.25 µg/mL
- MIC [10]: ≤ 0.03 µg/mL
- MIC50 [10]: ≤ 0.03 µg/mL
- MIC90 [10]: 0.12 µg/mL
- MIC50 [11]: 0.12 µg/mL
- MIC90 [11]: 8 µg/mL
- MIC50 (Staphylococcus aureus [12]): 0.12 µg/mL
- MIC90 (Staphylococcus aureus [12]): 4 µg/mL
- MIC50 (Providencia stuartii): ≤ 0.06 µg/mL
- MIC90 (Providencia stuartii): 8 µg/mL
- MIC50 [13]: 0.12 µg/mL
- MIC90 [13]: 8 µg/mL
- MIC50 (Lactococcus lactis): 0.5 µg/mL
- MIC90 (Lactococcus lactis): 4 µg/mL
